These results are taken from US9328112B2, “Tetracyclic CDK9 kinase inhibitors” (AbbVie Inc., priority 2014, dated 2016).

Structures are written as SMILES. Structures can show the parent of a compound that is named as a salt.

The target of test [1] is CDK9/Cyclin T1 (Homo sapiens (Human), UniProt P50750). Nature of the test: CDK9 enzyme assay (LANCE ULight TR-FRET kinase assay). Type of test: biochemical. The conditions noted are these: 1000 μM ATP, 100 nM ULight MBP, kinase reaction 1 hour. As for the experimental part: CDK9 enzyme activities were measured using LANCE ULight TR-FRET kinase assay reagents (PerkinElmer, Waltham, Mass.). Compounds were diluted in 100% DMSO then diluted with 1:10 in serine/threonine kinase assay buffer containing 20 mM HEPES, 10 mM MgCl2, […], and 0.0075% Triton X-100. Equal volume of the compound dilutions was added to a final reaction mixture containing LANCE detection buffer (PerkinElmer CR97-100), 100 nM ULight MBP (PerkinElmer TRF0109M), 1000 μM ATP, and CDK9/Cyclin T1 (Carna Biosciences 04-110). The kinase reaction was carried out for 1 hour before addition of stopping buffer to a final of 20 mM EDTA and 0.5 nM of LANCE Ultra Europium anti-phospho-MBP antibody (PerkinElmer TRF0201M) in LANCE detection buffer. The reaction was incubated for 1 hour and the signal was read in Envision in TR-FRET mode (excitation at 320 nm and emission at 615/665 nm).
CDK9/Cyclin T1, sequence (P50750 whole entry): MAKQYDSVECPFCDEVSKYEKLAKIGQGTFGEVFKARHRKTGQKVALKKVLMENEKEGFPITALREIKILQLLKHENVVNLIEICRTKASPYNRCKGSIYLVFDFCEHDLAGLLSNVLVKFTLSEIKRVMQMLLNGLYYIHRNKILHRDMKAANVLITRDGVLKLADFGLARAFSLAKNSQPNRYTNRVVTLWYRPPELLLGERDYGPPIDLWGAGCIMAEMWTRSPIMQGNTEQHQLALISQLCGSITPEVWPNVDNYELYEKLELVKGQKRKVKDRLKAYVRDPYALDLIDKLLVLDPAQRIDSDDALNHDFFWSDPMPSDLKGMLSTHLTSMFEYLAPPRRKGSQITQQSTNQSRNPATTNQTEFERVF
CDK9/Cyclin T1, sequence (O60563 whole entry partner): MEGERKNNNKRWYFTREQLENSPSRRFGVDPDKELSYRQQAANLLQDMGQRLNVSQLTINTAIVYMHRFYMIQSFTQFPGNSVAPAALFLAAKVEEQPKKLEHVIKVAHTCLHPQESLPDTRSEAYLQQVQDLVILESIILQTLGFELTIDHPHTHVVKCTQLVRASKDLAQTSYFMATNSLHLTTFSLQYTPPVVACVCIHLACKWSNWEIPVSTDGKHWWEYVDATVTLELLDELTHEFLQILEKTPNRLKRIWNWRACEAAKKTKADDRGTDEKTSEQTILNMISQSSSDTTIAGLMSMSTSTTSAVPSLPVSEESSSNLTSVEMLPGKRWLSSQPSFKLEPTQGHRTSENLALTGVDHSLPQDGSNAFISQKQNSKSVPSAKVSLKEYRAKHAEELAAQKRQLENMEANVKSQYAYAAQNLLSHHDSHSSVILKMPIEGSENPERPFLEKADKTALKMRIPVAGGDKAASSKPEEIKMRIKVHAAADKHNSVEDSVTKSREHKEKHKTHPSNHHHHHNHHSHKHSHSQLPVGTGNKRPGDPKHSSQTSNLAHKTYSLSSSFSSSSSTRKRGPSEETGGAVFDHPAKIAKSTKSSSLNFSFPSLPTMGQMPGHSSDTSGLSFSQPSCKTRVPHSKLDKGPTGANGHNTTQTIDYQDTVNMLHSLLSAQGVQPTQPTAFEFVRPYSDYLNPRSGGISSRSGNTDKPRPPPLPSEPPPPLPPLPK

For test [2], the system named is H929 cells. Briefly: Cell viability assay (Cell TiterGlo). The conditions noted are these: Homo sapiens, NCI-H929, 24 hours at 37° C., Cell TiterGlo luminescence. In kind it is cell-based. As for the experimental part:
The cell viability assay was performed using H929 cells. Cells were seeded in 96-well plates at 10,000 cells/well and, after overnight incubation, treated with compounds in a dose response of 3-fold dilutions from 10 μM to 0.005 μM ([…], 0.1% final DMSO concentration). After 24 hours at 37° C., cell viability was measured using Cell TiterGlo reagent (Promega) with a luminescence reader.
(In general: ATP-based viability assays read luminescence as a measure of living cells.)

As a reminder, the IC50 is the midpoint of a concentration-inhibition curve. High values mean weaker potency, low ones greater potency. Take `CN1Cc2c(C3=CCNCC3)[nH]c3nccc(c23)-c2cc(F)ccc21` [Example 1, 10-fluoro-7-methyl-5-(1,2,3,6-tetrahydropyridin-4-yl)-6,7-dihydro-4H-3,4,7-triazadibenzo[cd,f]azulene]: the IC50 was 21 nM in test [1] and 40 nM in test [2].

`CN1Cc2c(C3=CCN(C(=O)OC(C)(C)C)CC3)[nH]c3nccc(c23)-c2cc(F)ccc21` [Example 2, tert-butyl 4-(10-fluoro-7-methyl-6,7-dihydro-4H-3,4,7-triazadibenzo[cd,f]azulen-5-yl)-3,6-dihydropyridine-1(2H)-carboxylate] showed an IC50 in test [2] of 940 nM.

Turning to `CCOC(=O)NS(=O)(=O)N1CC=C(c2[nH]c3nccc4c3c2CN(C)c2ccc(F)cc2-4)CC1` [Example 3, ethyl{[4-(10-fluoro-7-methyl-6,7-dihydro-4H-3,4,7-triazadibenzo[cd,f]azulen-5-yl)-3,6-dihydropyridin-1(2H)-yl]sulfonyl}carbamate], the values for the IC50 in test [1] and in test [2] were 47 nM and 590 nM, respectively.

On to `CN1Cc2c(C3=CCN(S(C)(=O)=O)CC3)[nH]c3nccc(c23)-c2cc(F)ccc21` [Example 4, 10-fluoro-7-methyl-5-[1-(methylsulfonyl)-1,2,3,6-tetrahydropyridin-4-yl]-6,7-dihydro-4H-3,4,7-triazadibenzo[cd,f]azulene], for which the IC50 came out at 25 nM in test [1] and 150 nM in test [2].

For `CS(=O)(=O)N1CC=C(c2[nH]c3nccc4c3c2CNc2ccc(F)cc2-4)CC1` [Example 5, 10-fluoro-5-[1-(methylsulfonyl)-1,2,3,6-tetrahydropyridin-4-yl]-6,7-dihydro-4H-3,4,7-triazadibenzo[cd,f]azulene], the IC50 was found to be 62 nM in test [1] and 730 nM in test [2].

Regarding `CCCN1Cc2c(C3=CCN(S(C)(=O)=O)CC3)[nH]c3nccc(c23)-c2cc(F)ccc21` [Example 6, 10-fluoro-5-[1-(methylsulfonyl)-1,2,3,6-tetrahydropyridin-4-yl]-7-propyl-6,7-dihydro-4H-3,4,7-triazadibenzo[cd,f]azulene], the values for the IC50 in test [1] and in test [2] were 340 nM and 2100 nM, respectively.

Turning to `CS(=O)(=O)N1CC=C(c2[nH]c3nccc4c3c2CN(CC2CCOCC2)c2ccc(F)cc2-4)CC1` [Example 7, 10-fluoro-5-[1-(methylsulfonyl)-1,2,3,6-tetrahydropyridin-4-yl]-7-(tetrahydro-2H-pyran-4-ylmethyl)-6,7-dihydro-4H-3,4,7-triazadibenzo[cd,f]azulene], the IC50 in test [1] is 800 nM; in test [2] it was 3300 nM.

`CCC1c2c(C3=CCN(C(=O)OC(C)(C)C)CC3)[nH]c3nccc(c23)-c2cc(F)ccc2N1C` (centres unmarked) [Example 8, tert-butyl 4-(6-ethyl-10-fluoro-7-methyl-6,7-dihydro-4H-3,4,7-triazadibenzo[cd,f]azulen-5-yl)-3,6-dihydropyridine-1(2H)-carboxylate] returned a concentration for half-maximal inhibition (IC50) in test [1] of 1400 nM.

For the compound `CCC1c2c(C3=CCNCC3)[nH]c3nccc(c23)-c2cc(F)ccc2N1C` (centres unmarked) [Example 9, 6-ethyl-10-fluoro-7-methyl-5-(1,2,3,6-tetrahydropyridin-4-yl)-6,7-dihydro-4H-3,4,7-triazadibenzo[cd,f]azulene dihydrochloride], the IC50 is 48 nM in test [1] and 10 nM in test [2].

`CN1c2ccc(F)cc2-c2ccnc3[nH]c(C4=CCNCC4)c(c23)C1c1cnn(C)c1` (centres unmarked) [Example 10, 10-fluoro-7-methyl-6-(1-methyl-1H-pyrazol-4-yl)-5-(1,2,3,6-tetrahydropyridin-4-yl)-6,7-dihydro-4H-3,4,7-triazadibenzo[cd,f]azulene]: the IC50 is 230 nM in test [1] and 360 nM in test [2].

Consider `CCC1c2c(C3=CCN(S(C)(=O)=O)CC3)[nH]c3nccc(c23)-c2cc(F)ccc2N1C` (centres unmarked) [Example 11, 6-ethyl-10-fluoro-7-methyl-5-[1-(methylsulfonyl)-1,2,3,6-tetrahydropyridin-4-yl]-6,7-dihydro-4H-3,4,7-triazadibenzo[cd,f]azulene], for which the results for the IC50 in test [1] and in test [2] were 120 nM and 32 nM, respectively.

Take `CN(C)C(=O)CN1CC=C(c2[nH]c3nccc4c3c2CN(C)c2ccc(F)cc2-4)CC1` [Example 12, 2-[4-(10-fluoro-7-methyl-6,7-dihydro-4H-3,4,7-triazadibenzo[cd,f]azulen-5-yl)-3,6-dihydropyridin-1(2H)-yl]-N,N-dimethylacetamide]: the IC50 in test [1] came out at 51 nM; in test [2], 42 nM.

`CNC(=O)N1CC=C(c2[nH]c3nccc4c3c2CN(C)c2ccc(F)cc2-4)CC1` [Example 13, 4-(10-fluoro-7-methyl-6,7-dihydro-4H-3,4,7-triazadibenzo[cd,f]azulen-5-yl)-N-methyl-3,6-dihydropyridine-1(2H)-carboxamide]: the IC50 in test [2] is 93 nM.

Take `Fc1ccc2c(c1)-c1ccnc3[nH]c(C4=CCNCC4)c(c13)CO2` [Example 14, 10-fluoro-5-(1,2,3,6-tetrahydropyridin-4-yl)-4,6-dihydro-7-oxa-3,4-diazadibenzo[cd,f]azulene]: the values for the IC50 in test [1] and in test [2] were 20 nM and 180 nM, respectively.

`CS(=O)(=O)N1CC=C(c2[nH]c3nccc4c3c2COc2ccc(F)cc2-4)CC1` [Example 15, 10-fluoro-5-[1-(methylsulfonyl)-1,2,3,6-tetrahydropyridin-4-yl]-4,6-dihydro-7-oxa-3,4-diazadibenzo[cd,f]azulene]: the IC50 in test [1] came out at 94 nM; in test [2], 590 nM.

Regarding `CN1Cc2c(C3CCN(CC(=O)OC(C)(C)C)CC3)[nH]c3nccc(c23)-c2cc(F)ccc21` [Example 22, tert-butyl[4-(10-fluoro-7-methyl-6,7-dihydro-4H-3,4,7-triazadibenzo[cd,f]azulen-5-yl)piperidin-1-yl]acetate], half-maximal inhibition in test [1] (IC50) required 2800 nM.

Compound `CN1Cc2c(C3CCN(CC(=O)O)CC3)[nH]c3nccc(c23)-c2cc(F)ccc21` [Example 23, [4-(10-fluoro-7-methyl-6,7-dihydro-4H-3,4,7-triazadibenzo[cd,f]azulen-5-yl)piperidin-1-yl]acetic acid] gave an IC50 in test [1] of 150 nM. This IC50 is about 19-fold lower than that of the compound before.

The compound `CN1Cc2c(C3=CCN(S(C)(=O)=O)CC3)[nH]c3ncc(F)c(c23)-c2cc(F)ccc21` [Example 68, 1,10-difluoro-7-methyl-5-[1-(methylsulfonyl)-1,2,3,6-tetrahydropyridin-4-yl]-6,7-dihydro-4H-3,4,7-triazadibenzo[cd,f]azulene] displayed an IC50 in test [2] of 130 nM.

Compound `CN(CCO)C(=O)CN1CC=C(c2[nH]c3ncc(F)c4c3c2CN(C)c2ccc(F)cc2-4)CC1` [Example 71, 2-[4-(1,10-difluoro-7-methyl-6,7-dihydro-4H-3,4,7-triazadibenzo[cd,f]azulen-5-yl)-3,6-dihydropyridin-1(2H)-yl]-N-(2-hydroxyethyl)-N-methylacetamide] showed an IC50 in test [2] of 21 nM.

Compound `CN1Cc2c(C3=CCCN(CC(=O)O)C3)[nH]c3nccc(c23)-c2cc(F)ccc21` [Example 112, [5-(10-fluoro-7-methyl-6,7-dihydro-4H-3,4,7-triazadibenzo[cd,f]azulen-5-yl)-3,6-dihydropyridin-1(2H)-yl]acetic acid] gave an IC50 in test [1] of 240 nM. This counts as sub-micromolar.

On to `COC(=O)C[C@H]1CC[C@H](N2CC=C(c3[nH]c4nccc5c4c3CN(C)c3cc(F)c(F)cc3-5)CC2)CC1` [Example 133, methyl{trans-4-[4-(9,10-difluoro-7-methyl-6,7-dihydro-4H-3,4,7-triazadibenzo[cd,f]azulen-5-yl)-3,6-dihydropyridin-1(2H)-yl]cyclohexyl}acetate], for which, in test [1], 58 nM corresponded to half-maximal inhibition (IC50).

`CN1Cc2c(C3=CCN([C@H]4CC[C@H](CC(=O)O)CC4)CC3)[nH]c3nccc(c23)-c2ccccc21` [Example 169, {trans-4-[4-(7-methyl-6,7-dihydro-4H-3,4,7-triazadibenzo[cd,f]azulen-5-yl)-3,6-dihydropyridin-1(2H)-yl]cyclohexyl}acetic acid] came in with an IC50 in test [1] of 90 nM.

For the compound `CN1Cc2c(C3=CCN([C@H]4CC[C@@H](CC(=O)O)CC4)CC3)[nH]c3nccc(c23)-c2ccccc21` [Example 170, {cis-4-[4-(7-methyl-6,7-dihydro-4H-3,4,7-triazadibenzo[cd,f]azulen-5-yl)-3,6-dihydropyridin-1(2H)-yl]cyclohexyl}acetic acid], 110 nM corresponded to half-maximal inhibition in test [1] (IC50).

For `CN1Cc2c(C3=CCN([C@H]4CC[C@H](C(=O)O)CC4)CC3)[nH]c3nccc(c23)-c2ccccc21` [Example 171, trans-4-[4-(7-methyl-6,7-dihydro-4H-3,4,7-triazadibenzo[cd,f]azulen-5-yl)-3,6-dihydropyridin-1(2H)-yl]cyclohexanecarboxylic acid], the IC50 in test [1] amounted to 150 nM. This IC50 and that of the compound before are within 1.5-fold of each other.

On to `CN1Cc2c(C3=CCN(C4CCC(C(=O)O)CC4)CC3)[nH]c3nccc(c23)-c2ccccc21` (centres unmarked) [Example 172, 4-[4-(7-methyl-6,7-dihydro-4H-3,4,7-triazadibenzo[cd,f]azulen-5-yl)-3,6-dihydropyridin-1(2H)-yl]cyclohexanecarboxylic acid], for which the IC50 in test [1] was determined as 120 nM.

In test [1], `CC(C(=O)O)=C1CCC(N2CC=C(c3[nH]c4nccc5c4c3CN(C)c3ccc(F)cc3-5)CC2)CC1` (centres unmarked) [Example 176, 2-{4-[4-(10-fluoro-7-methyl-6,7-dihydro-4H-3,4,7-triazadibenzo[cd,f]azulen-5-yl)-3,6-dihydropyridin-1(2H)-yl]cyclohexylidene}propanoic acid] registered an IC50 of 84 nM.
